Test results reported in US10760110B2, “Antibiotic testing and screening system” (priority 2017, dated 2020).
Values after ≈ are worked out from the molar mass of the structure shown.

Legend:
[1] = tested on: K. pneumoniae NVT1001 harbouring the pACYC177 plasmid with blaOXA-48; assay: Broth microdilution MIC (CLSI); assay type: cell-based; conditions: Klebsiella pneumoniae; broth microdilution test; NVT1001 with pACYC177 blaOXA-48
Procedure: The MICs of antibiotics were determined using the Etest (Biodisk AB, Sweden) according to the manufacturer's instructions. The MICs from the Etest, which fall between standard two-fold dilutions, were rounded up to the next highest two-fold value. The MICs of ceftazidime and cefotaxime against K. pneumoniae NVT1001 harbouring the pACYC177 plasmid with blaOXA-48 were further determined using a broth microdilution test according to the recommendations of the CLSI,^25 and the results were interpreted according to the breakpoints established by the CLSI in 2017.^25 Meanwhile, due to the lack of CLSI breakpoints in 2016 and 2017, the results for cephalothin were interpreted according to the breakpoints established by the CLSI in 2015,^26 and the results for moxifloxacin were interpreted according to the breakpoints established by the EUCAST in 2017.^27

[2] = tested on: A. baumannii KW1 strains with β-lactamase plasmids; assay: Etest MIC of β-lactams, extended-spectrum β-lactamase, AmpC β-lactamase or carbapenemase (Table 18); assay type: cell-based, Acinetobacter baumannii; conditions: production of OXA-type carbapenemases
How it was run: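 A. baumannii KW1 transformed by electroporation with pYMAb5 or pYMAb5Tc carrying PCR-cloned resistance genes plus flanking regions from clinical plasmids. MICs by Etest; values between two-fold dilutions rounded up to the next two-fold value.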

Compound	MIC [1]	effects on the MIC [2]
CO/N=C(\C(=O)N[C@@H]1C(=O)N2C(C(=O)O)=C(COC(C)=O)CS[C@H]12)c1csc(N)n1 [Cefotaxime]	2 µg/mL (≈ 4.39 µM)	
CC(C)(O/N=C(\C(=O)N[C@@H]1C(=O)N2C(C(=O)[O-])=C(C[n+]3ccccc3)CS[C@H]12)c1csc(N)n1)C(=O)O [Ceftazidime]	0.5 µg/mL (≈ 0.915 µM)	no increase effects
